The supplement of paper PMC9663587

Legend:
[1] = compound: CCN1CCN(Cc2ccc(Nc3ncc(F)c(-c4cc(F)c5nc(C)n(C(C)C)c5c4)n3)nc2)CC1; test: increase in dead-cell fraction, 72 h; higher = more death;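 note: breast cancer cell lines in 384-well plates, stained with Hoechst plus LIVE/DEAD far red dye and imaged, cells above an LDR intensity threshold counted dead, Hoechst-negative corpses included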
[2] = compound: CN1CC[C@H](c2c(O)cc(O)c3c(=O)cc(-c4ccccc4Cl)oc23)[C@H](O)C1 [Flavopiridol]; test: as above
[3] = compound: C=CC(=O)Nc1ccc(C(=O)Nc2[nH]nc3c2CN(C(=O)N[C@H](CN(C)C)c2ccccc2)C3(C)C)cc1 [YKL-5-124]; test: GR value, 72 h; higher = faster growth (1 = untreated, <0 = killing);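 note: breast cancer and non-malignant breast epithelial lines, nine half-log doses, viable cells counted by Hoechst and LIVE/DEAD dye imaging versus time-zero plates and DMSO controls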
[4] = compound: CC(=O)c1c(C)c2cnc(Nc3ccc(N4CCN(CCOCCOCCOCCNC(=O)COc5cccc6c5C(=O)N(C5CCC(=O)NC5=O)C6=O)CC4)cn3)nc2n(C2CCCC2)c1=O [BSJ-03-123]; test: as above
[5] = compound: CC(=O)c1c(C)c2cnc(Nc3ccc(N4CCNCC4)cn3)nc2n(C2CCCC2)c1=O; test: as above
[6] = compound: CCN1CCN(Cc2ccc(Nc3ncc(F)c(-c4cc(F)c5nc(C)n(C(C)C)c5c4)n3)nc2)CC1; test: as above

## MCF10A
[1]; 0.001 µM
  increase in dead-cell fraction: -0.0006
[1]; 0.003162 µM
  increase in dead-cell fraction: -0.0032
[1]; 0.01 µM
  increase in dead-cell fraction: -0.0061
[1]; 0.03162 µM
  increase in dead-cell fraction: -0.0084
[1]; 0.1 µM
  increase in dead-cell fraction: -0.0079
[1]; 0.3162 µM
  increase in dead-cell fraction: -0.0081
[1]; 1 µM
  increase in dead-cell fraction: -0.0035
[1]; 3.162 µM
  increase in dead-cell fraction: -0.0012
[1]; 10 µM
  increase in dead-cell fraction: 0.0346
[2]; 0.0001 µM
  increase in dead-cell fraction: 0.0016
[2]; 0.0003162 µM
  increase in dead-cell fraction: 0
[2]; 0.001 µM
  increase in dead-cell fraction: -0.0007
[2]; 0.003162 µM
  increase in dead-cell fraction: -0.0005
[2]; 0.01 µM
  increase in dead-cell fraction: 0
[2]; 0.03162 µM
  increase in dead-cell fraction: 0.0039
[2]; 0.1 µM
  increase in dead-cell fraction: 0.0255
[2]; 0.3162 µM
  increase in dead-cell fraction: 0.407
[2]; 1 µM
  increase in dead-cell fraction: 0.87
[3]; 0.001 µM
  GR value: 0.472 GR
[3]; 0.003162 µM
  GR value: 0.235 GR
[3]; 0.01 µM
  GR value: 0.149 GR
[3]; 0.03162 µM
  GR value: 0.0788 GR
[3]; 0.1 µM
  GR value: 0.0321 GR
[3]; 0.3162 µM
  GR value: 0.0253 GR
[3]; 1 µM
  GR value: 0.0094 GR
[3]; 3.162 µM
  GR value: -0.0385 GR
[3]; 10 µM
  GR value: -0.153 GR
[4]; 0.001 µM
  GR value: 0.915 GR
[4]; 0.003162 µM
  GR value: 0.877 GR
[4]; 0.01 µM
  GR value: 0.81 GR
[4]; 0.03162 µM
  GR value: 0.76 GR
[4]; 0.1 µM
  GR value: 0.736 GR
[4]; 0.3162 µM
  GR value: 0.708 GR
[4]; 1 µM
  GR value: 0.577 GR
[4]; 3.162 µM
  GR value: 0.502 GR
[4]; 10 µM
  GR value: -0.113 GR
[5]; 0.0003162 µM
  GR value: 0.996 GR
[5]; 0.001 µM
  GR value: 0.999 GR
[5]; 0.003162 µM
  GR value: 0.979 GR
[5]; 0.01 µM
  GR value: 0.939 GR
[5]; 0.03162 µM
  GR value: 0.852 GR
[5]; 0.1 µM
  GR value: 0.748 GR
[5]; 0.3162 µM
  GR value: 0.653 GR
[5]; 1 µM
  GR value: 0.582 GR
[5]; 3.162 µM
  GR value: 0.444 GR
[6]; 0.001 µM
  GR value: 0.981 GR
[6]; 0.003162 µM
  GR value: 0.95 GR
[6]; 0.01 µM
  GR value: 0.882 GR
[6]; 0.03162 µM
  GR value: 0.78 GR
[6]; 0.1 µM
  GR value: 0.665 GR
[6]; 0.3162 µM
  GR value: 0.543 GR
[6]; 1 µM
  GR value: 0.364 GR
[6]; 3.162 µM
  GR value: 0.255 GR
[6]; 10 µM
  GR value: 0.159 GR
